# Assay results as given in paper PMC10290130, “The potential of phenothiazinium dyes as cytotoxicity markers in cisplatin-treated cells” (Scientific Reports, 2023).
# Like-named read-outs stand apart in the source and are kept apart here.
# Tests used:
# [1] = system: Vero cells; conditions: 72 h of incubation; cited from earlier work
# [2] = system: Vero cells and fibroblasts; experiment: DMSO cytotoxicity, 72 h, read with phenothiazinium dyes, NR or MTT; format: cell-based, African green monkey; human; conditions: DMSO in concentrations above 5%
# Protocol: (§1) Cells were treated with either DMSO (Vero cells and primary fibroblasts) or cisplatin (LLC-MK2, MCF 10A, and MDA-MB-231). […] After treatment with DMSO and cisplatin, labeling with MTT or NR was performed as described previously[27],[28] with modifications[29],[30]. Cells incubated with phenothiazinium dyes were processed by the same protocol used for NR. […] The cells incubated with MTT were diluted with 100 µl of DMSO. The plates were read at 540 nm (NR) or 570 nm (MTT) in an ELISA reader (Epoch Biotek). Three (LLC-MK2 and MDA-MB-231) and two (Vero cells, human primary fibroblasts and MCF 10A) independent experiments were performed.
# (§2) Values for area under the curve were calculated with GraphPad Prism 8.0 software (San Diego, California USA). For cells incubated with DMSO or cisplatin, the percentage of inhibition was calculated from the absorbance of treated samples relative to their non-treated controls. These values were used to calculate the half-maximal inhibitory concentration (IC50) of cisplatin and DMSO, which was done with Compusyn software (version 1.0)[31].
# [3] = system: Vero cells; experiment: Light microscopy of phenothiazinium dye accumulation in cells; format: cell-based, African green monkey; conditions: during incubation with cells; phenothiazinium dyes 100 µM, NR 50 µg/ml
# Protocol: The accumulation of phenothiazine dyes in cells was detected by light and confocal microscopies. Firstly, Vero cells were incubated with MB, NMB, TBO, and DMMB (100, 50, 25 and 12.5 µM) for 3 h, 37 °C, 5% CO2 and washed with PBS. […] For confocal detection of phenothiazinium dyes, Vero cell cultures were incubated with 10 μM of MB, NMB, TBO or DMMB for 30 min, 37 °C, with 5% CO2. For all procedures, non-treated controls were incubated with RPMI under the same conditions. The cultures were washed with PBS and treated with trypsin for 10 min, 37 °C and 5% CO2. The cells were transferred to slides and analyzed by confocal microscopy with excitation/emission wavelengths of 543/600 nm, respectively.
# [4] = design: method as in PMID 23758207; conditions: cited from earlier work
# [5] = system: MCF 10A; experiment: Cisplatin cytotoxicity, 72 h, read with phenothiazinium dyes, NR or MTT; format: cell-based, human
# Protocol: as §1, §2
# [6] = system: MDA-MB-231; experiment: as above; format: cell-based, human
# Protocol: as §1, §2
# [7] = system: LLC-MK2; experiment: as above; format: cell-based, rhesus monkey
# Protocol: as §1, §2
# [8] = system: MDA-MB-231; design: method as in PMID 33261142; conditions: read-out: concentration inhibiting 50% of growth; cited from earlier work
smiles,measurement,setting,value
"Cc1cc(N(C)C)cc2[s+]c3cc(N(C)C)cc(C)c3nc12.[Cl-] [DMMB, 3,7-bis(dimethylamino)-1,9-dimethylphenothiazin-5-ium chloride]",concentrations with toxic effects,[1],below 10 µM
"C[S+](C)[O-] [DMSO, dimethyl sulfoxide]",cell inhibition,[2],> 70%
"Cc1cc2nc3ccc(N(C)C)cc3nc2cc1N.Cl [NR, 3-amino-7-dimethylamino-2-methylphenazine hydrochloride]",dye precipitation / crystal formation,[3],Crystals of NR formed
same,pKa,[4],6.9
same,log P,[4]; free base state,1.9
"N.N.[Cl][Pt][Cl] [cisplatin, cis-diammineplatinum (II) dichloride]",concentrations at which cells were resistant,[5],below 25 µM
same,IC50,[5]; indicator DMMB,14.8 µM
same,IC50,[5]; indicator MB,9.26 µM
same,IC50,[5]; indicator MTT,11.9 µM
same,IC50,[5]; indicator NMB,17.1 µM
same,IC50,[5]; indicator NR,13.5 µM
same,IC50,[5]; indicator TBO,14.6 µM
same,cell inhibition,[6]; cisplatin at concentrations above 12.5 µM,more than 50%
same,IC50,[6]; indicator NMB,1.83 µM
same,IC50,[6]; indicator NR,8.44 µM
same,concentrations at which cells were resistant,[7],< 50 µM
same,IC50,[7]; indicator DMMB,29.5 µM
same,IC50,[7]; indicator MB,19 µM
same,IC50,[7]; indicator MTT,25.2 µM
same,IC50,[7]; indicator NMB,28.2 µM
same,IC50,[7]; indicator NR,34.9 µM
same,IC50,[7]; indicator TBO,30.4 µM
same,IC50,[8],6 µM
